Measurements as given in ChEMBL document CHEMBL1201862, “PubChem BioAssay data set” (2004).
The source made the active and inactive calls.

Experiments:
[1] = target: T1, Sphingosine 1-phosphate receptor 4 (Homo sapiens, UniProt O95977); experiment: Fluorescence dose response cell-based high throughput screening assay for antagonists of the Sphingosine 1-Phosphate Receptor 4 (S1P4). [Related pubchem assays: 1524 (Confirmation in triplicates.), 1510 (Primary screen.)]; format: functional
[2] = target: T1, Sphingosine 1-phosphate receptor 4; experiment: Late stage fluorescence dose response cell-based screening assay for antagonists of the Sphingosine 1-Phosphate Receptor 4 (S1P4). [Related pubchem assays: 1524 (Confirmation screen (S1P4 antagonists).), 1510 (Primary screen (S1P4 antagonists).), 1853 (Summary AID (S1P4 antagonists).), 1692 (Dose response screen (S1P4 antagonists).)]; format: functional
[3] = growth suppression of beta-catenin-knockout colon cells, dose response, cell-based, HCT116, human colon tumor (AID 1045); format: functional;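 note: HCT116 colon tumor cells with beta catenin knocked out; cells exposed to compound for 60 hours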
[4] = target: Sphingosine 1-phosphate receptor 1 (Homo sapiens, UniProt P21453); format: functional;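 note: Tango beta-arrestin reporter U2OS cells stimulated with S1P near its EC80; inhibitor potency meaning antagonism of receptor activation by the natural agonist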
[5] = growth suppression of PTEN-null colon cells, dose response, cell-based, HCT116 PTEN knockout (AID 1047); format: functional;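 note: HCT116 colon tumor cells with PTEN knocked out; cells exposed to compound for 60 hours before readout; potency for loss of cell viability measured by luminescence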
[6] = target: 5-hydroxytryptamine receptor 1A (Homo sapiens, UniProt P08908); format: functional
Protein skinhead-1 = target: T2, Protein skinhead-1 (Caenorhabditis elegans, UniProt P34707); format: functional
T2 sequence (P34707 whole entry): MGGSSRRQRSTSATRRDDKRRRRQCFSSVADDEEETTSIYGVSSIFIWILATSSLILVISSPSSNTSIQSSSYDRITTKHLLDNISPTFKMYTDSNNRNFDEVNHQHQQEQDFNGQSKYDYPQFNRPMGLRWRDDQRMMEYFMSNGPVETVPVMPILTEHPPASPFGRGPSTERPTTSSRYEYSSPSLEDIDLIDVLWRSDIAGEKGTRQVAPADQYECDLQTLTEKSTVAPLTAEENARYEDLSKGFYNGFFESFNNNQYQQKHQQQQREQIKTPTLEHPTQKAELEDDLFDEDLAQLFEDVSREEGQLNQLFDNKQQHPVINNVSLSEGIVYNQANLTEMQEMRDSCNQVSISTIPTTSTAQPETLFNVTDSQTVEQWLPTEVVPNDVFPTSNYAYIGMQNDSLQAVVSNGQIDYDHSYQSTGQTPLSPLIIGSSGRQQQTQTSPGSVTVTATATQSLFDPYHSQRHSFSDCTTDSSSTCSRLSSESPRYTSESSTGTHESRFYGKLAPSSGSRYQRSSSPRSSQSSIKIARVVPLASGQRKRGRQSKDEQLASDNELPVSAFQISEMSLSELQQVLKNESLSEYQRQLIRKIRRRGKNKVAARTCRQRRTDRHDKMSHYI

[7] = target: Voltage-gated inwardly rectifying potassium channel KCNH2 (Homo sapiens, UniProt Q12809); experiment: hERG protection from proarrhythmic block, potency, dose response, cell-based, thallium flux (AID 2121); format: ADME
[8] = target: T3, Polyadenylate-binding protein 1 (Homo sapiens, UniProt P11940); experiment: PABP1 MLLE–PAM2 binding inhibitor potency, dose response, biochemical, fluorescence polarization, FITC-PAM2 peptide (AID 602259); format: functional; settings: read-out: IC50_Mean
[9] = target: T3, Polyadenylate-binding protein 1; experiment: PABP1 MLLE–PAM2 interaction inhibitors, dose response, miRNA deadenylation inhibitor project, biochemical, fluorescence polarization, Cy5-PAM2 peptide, secondary (AID 602260); format: functional; settings: read-out: IC50_Mean
NADPH oxidase 1 = target: T4, NADPH oxidase 1 (Homo sapiens, UniProt Q9Y5S8); format: functional, cell-based;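 note: Cell-based assay with luminescence read-out, IC50 derived from inhibitor dose-response curves; intracellular ROS from endogenous NOX1 in intact HT29 colon cancer cells; potency of inhibitors that lower the ROS luminescence signal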
T4 sequence (Q9Y5S8 whole entry): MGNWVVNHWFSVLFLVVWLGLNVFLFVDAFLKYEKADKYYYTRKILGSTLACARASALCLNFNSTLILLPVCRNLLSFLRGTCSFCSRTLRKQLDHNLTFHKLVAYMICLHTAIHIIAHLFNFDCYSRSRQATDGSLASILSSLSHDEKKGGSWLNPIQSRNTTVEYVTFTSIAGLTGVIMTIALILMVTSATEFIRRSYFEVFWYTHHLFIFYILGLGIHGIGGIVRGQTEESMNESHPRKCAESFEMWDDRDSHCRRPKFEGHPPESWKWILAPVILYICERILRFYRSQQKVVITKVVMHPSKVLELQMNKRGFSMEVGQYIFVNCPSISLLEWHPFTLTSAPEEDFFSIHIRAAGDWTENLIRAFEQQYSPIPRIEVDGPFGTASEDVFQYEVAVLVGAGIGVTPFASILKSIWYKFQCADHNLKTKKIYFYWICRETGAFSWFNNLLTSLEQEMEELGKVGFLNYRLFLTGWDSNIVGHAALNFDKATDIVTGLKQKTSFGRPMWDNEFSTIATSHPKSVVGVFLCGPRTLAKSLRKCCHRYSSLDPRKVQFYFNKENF

Estrogen receptor beta [10] = target: T5, Estrogen receptor beta (Homo sapiens, UniProt Q92731); experiment: ERβ–SRC-3 coactivator interaction inhibitors, confirmation, orthogonal assay, biochemical, ELISA, streptavidin-HRP readout (AID 1060)
Estrogen receptor = target: T6, Estrogen receptor (Homo sapiens, UniProt P03372);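 note: potency for inhibiting coactivator peptide recruitment to the receptor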
T6 sequence (P03372 whole entry): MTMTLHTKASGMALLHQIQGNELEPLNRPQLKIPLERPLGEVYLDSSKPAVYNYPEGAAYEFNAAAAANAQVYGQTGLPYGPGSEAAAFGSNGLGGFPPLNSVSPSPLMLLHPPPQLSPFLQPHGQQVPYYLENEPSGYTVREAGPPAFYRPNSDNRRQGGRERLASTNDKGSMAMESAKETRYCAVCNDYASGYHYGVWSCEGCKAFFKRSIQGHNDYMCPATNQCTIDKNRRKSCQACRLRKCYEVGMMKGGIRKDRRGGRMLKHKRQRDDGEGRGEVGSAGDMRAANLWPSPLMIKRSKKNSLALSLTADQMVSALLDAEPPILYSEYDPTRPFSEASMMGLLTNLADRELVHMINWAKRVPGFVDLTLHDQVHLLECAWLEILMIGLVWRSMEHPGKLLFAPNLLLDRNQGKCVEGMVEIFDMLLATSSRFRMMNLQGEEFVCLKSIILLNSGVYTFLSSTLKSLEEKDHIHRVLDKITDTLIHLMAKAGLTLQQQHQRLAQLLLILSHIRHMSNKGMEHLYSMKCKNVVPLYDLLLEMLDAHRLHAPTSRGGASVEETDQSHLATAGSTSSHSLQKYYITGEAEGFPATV

[11] = target: T7, Carboxy-terminal domain RNA polymerase II polypeptide A small phosphatase 1 (Homo sapiens, UniProt Q9GZU7); experiment: inhibitors of CTDSP1, concentration-response testing, biochemical assay, absorbance-based, actives from ultra-high-throughput screening (AID 540297); format: functional
T7 sequence (Q9GZU7 whole entry): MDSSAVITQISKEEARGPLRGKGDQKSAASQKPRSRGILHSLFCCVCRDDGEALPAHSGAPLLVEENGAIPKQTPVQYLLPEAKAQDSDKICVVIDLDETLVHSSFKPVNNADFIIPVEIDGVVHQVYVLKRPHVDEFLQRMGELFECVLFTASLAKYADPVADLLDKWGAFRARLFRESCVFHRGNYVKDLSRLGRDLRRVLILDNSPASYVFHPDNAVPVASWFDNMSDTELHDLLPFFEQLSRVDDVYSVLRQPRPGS

[12] = Luminescence Cell-Based Dose Confirmation HTS to Identify Inhibitors of Platelet Dense Granule Release. [Related pubchem assays: 1663 (Primary HTS), 1678 (Summary of Project)]; format: functional
[13] = target: Luciferin 4-monooxygenase (Photinus pyralis, UniProt P08659); experiment: firefly luciferase enzyme inhibitors, dose response, biochemical, luminescence (AID 1891)
Estrogen receptor beta [14] = target: T5, Estrogen receptor beta
[15] = Luminescence Cell-Based Dose Confirmation HTS to Identify Inhibitors of Polyadenylation.; format: functional
Albumin = Albumin (Bos taurus, UniProt P02769); experiment: Counterscreen for inhibitors of T-cell receptor (TCR)-CD3 interaction: Fluorescence-based biochemical high throughput dose response assay to identify inhibitors of T-cell receptor (TCR)-CD3 interaction using a TAMRA-labeled BSA probe.; format: functional
Caspase-6 = target: T8, Caspase-6 (Homo sapiens, UniProt P55212); experiment: human caspase-6 inhibitors, dose response, biochemical, VEID-R110 fluorescence, cherry-pick (AID 720632)
T8 sequence (P55212 whole entry): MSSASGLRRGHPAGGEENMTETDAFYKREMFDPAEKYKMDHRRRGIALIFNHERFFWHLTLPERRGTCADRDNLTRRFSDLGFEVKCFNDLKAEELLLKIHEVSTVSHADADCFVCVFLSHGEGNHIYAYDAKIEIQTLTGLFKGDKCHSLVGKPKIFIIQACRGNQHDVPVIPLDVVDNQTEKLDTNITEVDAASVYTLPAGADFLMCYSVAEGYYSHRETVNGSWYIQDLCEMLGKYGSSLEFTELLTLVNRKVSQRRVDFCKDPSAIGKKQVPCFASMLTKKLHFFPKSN

Bcl-2-like protein 1 = Bcl-2-like protein 1 (Homo sapiens, UniProt Q07817); experiment: BCL-XL inhibitors, dose response, selectivity assay for MCL1 inhibitor project, biochemical, fluorescence polarization, 1536-well (AID 2218)
[16] = target: Induced myeloid leukemia cell differentiation protein Mcl-1 (Homo sapiens, UniProt Q07820); experiment: MCL1-BIM BH3 interaction inhibitors, dose response, biochemical, fluorescence polarization, BIM-BH3 peptide, 1536-well (AID 2217)
Cytochrome P450 2D6 = Cytochrome P450 2D6 (Homo sapiens, UniProt P10635);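 note: CYP2D6 member of a cytochrome P450 panel assay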
[17] = Luminescence Cell-Based Dose Response to Identify Activators of Luciferase Translation or Activity in H4-C Neuroglioblastoma Cells. [Related pubchem assays: 1829 (Project Summary), 1814 (Primary HTS)]; format: functional
[18] = Luminescence Cell-Based Dose Response HTS to Identify Activators of Luciferase Translation or Activity in H4 […] Cells. [Related pubchem assays: 1829 (Project Summary), 1814 (Primary HTS)]; format: functional
[19] = Luminescence Cell-Based Dose Response to Identify Activators of 5'UTR Stem-Loop Driven Prion Protein mRNA Translation in H4-C Neuroglioblastoma Cells. [Related pubchem assays: 1829 (Project Summary), 1814 (Primary HTS)]; format: functional
[20] = Luminescence Cell-Based Dose Confirmation to Identify Activators of 5'UTR Stem-Loop Driven Alpha-Synuclein mRNA Translation in H4 Neuroglioblastoma Cells. [Related pubchem assays: 1829 (Project Summary), 1814 (Primary HTS)]; format: functional
Cytochrome P450 2C19 = Cytochrome P450 2C19 (Homo sapiens, UniProt P33261); experiment: Cytochrome panel assay with activity outcomes. Panel member name: p450-cyp2c19 Compounds with AC50 equal or less than 10 uM are considered active; format: functional; settings: read-out: AC50
H4 = experiment: Luminescence Cell-Based Dose Response HTS to Identify Activators of 5'UTR Stem-Loop Driven Prion Protein mRNA Translation in H4 Neuroglioblastoma Cells. [Related pubchem assays: 1829 (Project Summary), 1814 (Primary HTS)]; format: functional; settings: Homo sapiens
Ion channel NompC = Ion channel NompC (Danio rerio, UniProt Q7T1G6); experiment: Fluorescence counterscreen assay for TRPML3 agonists: dose response cell-based high-throughput screening assay to identify agonists of the transient receptor potential channel N1 (TRPN1). [Related pubchem assays: 1526, 1424, 1448 ]; format: functional
Mucolipin-3 = Mucolipin-3 (Homo sapiens, UniProt Q8TDD5); experiment: Dose response cell-based high-throughput screening assay for agonists of the transient receptor potential channel ML3 (TRPML3). [Related pubchem assays: 1526, 1424, 1448 ]; format: functional
Chain of Mucolipin-3 (Q8TDD5 whole entry): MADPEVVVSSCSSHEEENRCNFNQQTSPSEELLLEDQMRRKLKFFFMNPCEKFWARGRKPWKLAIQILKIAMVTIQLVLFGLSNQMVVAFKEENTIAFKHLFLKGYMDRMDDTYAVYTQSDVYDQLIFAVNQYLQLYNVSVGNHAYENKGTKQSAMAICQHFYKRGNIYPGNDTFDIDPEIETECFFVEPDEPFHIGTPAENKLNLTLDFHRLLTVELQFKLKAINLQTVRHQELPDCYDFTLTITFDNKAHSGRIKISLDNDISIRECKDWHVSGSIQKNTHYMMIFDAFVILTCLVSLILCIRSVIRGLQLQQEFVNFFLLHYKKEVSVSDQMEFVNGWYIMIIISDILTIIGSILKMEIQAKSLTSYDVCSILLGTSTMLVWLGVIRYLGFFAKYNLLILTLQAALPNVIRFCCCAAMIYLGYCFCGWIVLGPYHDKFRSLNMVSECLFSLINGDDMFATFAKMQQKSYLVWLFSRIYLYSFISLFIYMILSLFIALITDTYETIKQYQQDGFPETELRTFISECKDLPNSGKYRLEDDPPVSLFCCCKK

T5 sequence (Q92731 whole entry): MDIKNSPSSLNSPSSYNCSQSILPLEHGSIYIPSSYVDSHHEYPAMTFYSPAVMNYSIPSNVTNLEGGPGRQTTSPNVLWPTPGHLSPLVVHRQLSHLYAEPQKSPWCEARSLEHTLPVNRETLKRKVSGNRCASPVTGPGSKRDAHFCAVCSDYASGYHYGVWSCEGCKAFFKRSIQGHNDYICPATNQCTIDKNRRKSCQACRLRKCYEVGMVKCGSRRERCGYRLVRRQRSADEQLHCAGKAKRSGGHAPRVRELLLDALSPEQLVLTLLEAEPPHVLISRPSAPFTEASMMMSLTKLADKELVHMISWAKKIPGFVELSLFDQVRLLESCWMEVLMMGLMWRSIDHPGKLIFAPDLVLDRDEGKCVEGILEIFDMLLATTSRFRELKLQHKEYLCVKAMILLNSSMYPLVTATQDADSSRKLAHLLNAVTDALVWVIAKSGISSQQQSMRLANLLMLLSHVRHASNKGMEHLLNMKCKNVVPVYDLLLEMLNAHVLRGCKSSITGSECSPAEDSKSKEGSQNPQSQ
T3 sequence (P11940 whole entry): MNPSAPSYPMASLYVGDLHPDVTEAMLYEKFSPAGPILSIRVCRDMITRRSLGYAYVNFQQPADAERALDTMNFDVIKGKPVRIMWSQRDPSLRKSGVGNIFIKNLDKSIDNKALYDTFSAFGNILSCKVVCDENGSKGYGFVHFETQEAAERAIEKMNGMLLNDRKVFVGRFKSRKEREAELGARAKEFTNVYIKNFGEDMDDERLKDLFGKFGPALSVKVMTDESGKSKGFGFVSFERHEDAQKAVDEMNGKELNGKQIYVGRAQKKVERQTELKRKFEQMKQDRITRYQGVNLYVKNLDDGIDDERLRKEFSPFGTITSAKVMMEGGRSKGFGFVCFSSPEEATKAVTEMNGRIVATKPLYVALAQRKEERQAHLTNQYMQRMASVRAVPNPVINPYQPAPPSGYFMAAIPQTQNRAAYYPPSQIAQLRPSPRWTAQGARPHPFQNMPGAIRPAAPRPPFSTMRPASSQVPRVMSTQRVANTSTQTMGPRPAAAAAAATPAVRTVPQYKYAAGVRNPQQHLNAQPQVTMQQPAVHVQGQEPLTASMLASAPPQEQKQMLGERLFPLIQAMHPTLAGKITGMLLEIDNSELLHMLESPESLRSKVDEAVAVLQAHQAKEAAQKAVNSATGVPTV
T1 sequence (O95977 whole entry): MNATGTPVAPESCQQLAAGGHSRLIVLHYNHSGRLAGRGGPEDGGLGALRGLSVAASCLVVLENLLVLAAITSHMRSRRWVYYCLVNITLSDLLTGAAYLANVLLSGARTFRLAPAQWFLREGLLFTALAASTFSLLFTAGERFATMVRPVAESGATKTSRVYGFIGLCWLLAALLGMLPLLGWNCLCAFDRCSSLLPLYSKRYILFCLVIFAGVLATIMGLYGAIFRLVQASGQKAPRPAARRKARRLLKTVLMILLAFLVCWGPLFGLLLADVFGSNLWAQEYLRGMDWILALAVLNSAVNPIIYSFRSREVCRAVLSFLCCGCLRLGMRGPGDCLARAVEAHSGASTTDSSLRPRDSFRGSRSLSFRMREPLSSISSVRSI
Chain of Cytochrome P450 2C19 (P33261 whole entry): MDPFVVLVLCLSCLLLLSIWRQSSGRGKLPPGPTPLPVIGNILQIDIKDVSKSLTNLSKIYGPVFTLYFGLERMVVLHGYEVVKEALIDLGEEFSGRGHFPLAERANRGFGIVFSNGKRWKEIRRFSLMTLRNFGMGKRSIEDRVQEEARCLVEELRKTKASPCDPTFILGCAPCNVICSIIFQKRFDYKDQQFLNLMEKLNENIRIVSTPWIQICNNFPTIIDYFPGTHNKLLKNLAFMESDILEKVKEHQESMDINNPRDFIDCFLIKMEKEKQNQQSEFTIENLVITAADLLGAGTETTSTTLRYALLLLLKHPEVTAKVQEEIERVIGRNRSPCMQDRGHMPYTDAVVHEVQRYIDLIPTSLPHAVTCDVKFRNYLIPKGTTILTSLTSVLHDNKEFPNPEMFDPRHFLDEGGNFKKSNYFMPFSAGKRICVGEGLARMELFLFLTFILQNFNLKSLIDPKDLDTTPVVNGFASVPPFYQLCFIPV
Chain of Cytochrome P450 2D6 (P10635 whole entry): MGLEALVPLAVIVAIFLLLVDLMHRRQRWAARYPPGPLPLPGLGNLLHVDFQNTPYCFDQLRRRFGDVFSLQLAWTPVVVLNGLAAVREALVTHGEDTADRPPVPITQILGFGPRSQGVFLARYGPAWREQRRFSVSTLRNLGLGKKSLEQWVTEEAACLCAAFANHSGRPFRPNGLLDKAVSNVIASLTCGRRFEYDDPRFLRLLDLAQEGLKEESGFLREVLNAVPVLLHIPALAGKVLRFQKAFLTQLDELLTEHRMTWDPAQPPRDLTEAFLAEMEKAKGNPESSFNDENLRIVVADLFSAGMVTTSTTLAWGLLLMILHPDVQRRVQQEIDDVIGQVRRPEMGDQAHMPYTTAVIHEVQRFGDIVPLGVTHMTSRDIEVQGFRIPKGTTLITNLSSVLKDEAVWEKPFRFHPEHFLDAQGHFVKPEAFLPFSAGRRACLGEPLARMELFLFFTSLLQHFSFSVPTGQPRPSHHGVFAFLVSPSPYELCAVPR
Chain of Luciferin 4-monooxygenase (P08659 whole entry): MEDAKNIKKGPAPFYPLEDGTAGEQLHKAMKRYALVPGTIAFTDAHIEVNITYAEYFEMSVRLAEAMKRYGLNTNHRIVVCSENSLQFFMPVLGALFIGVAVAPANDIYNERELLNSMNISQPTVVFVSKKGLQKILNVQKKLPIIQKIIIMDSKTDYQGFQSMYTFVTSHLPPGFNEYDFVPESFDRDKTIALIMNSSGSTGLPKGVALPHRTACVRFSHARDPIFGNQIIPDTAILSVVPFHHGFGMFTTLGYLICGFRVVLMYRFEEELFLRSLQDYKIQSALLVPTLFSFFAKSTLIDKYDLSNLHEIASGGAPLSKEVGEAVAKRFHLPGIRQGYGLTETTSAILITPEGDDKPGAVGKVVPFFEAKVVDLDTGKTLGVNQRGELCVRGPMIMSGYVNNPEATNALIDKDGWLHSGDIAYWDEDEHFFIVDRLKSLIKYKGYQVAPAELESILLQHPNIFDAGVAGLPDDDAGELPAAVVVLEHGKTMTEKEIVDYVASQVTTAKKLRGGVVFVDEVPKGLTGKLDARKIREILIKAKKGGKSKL
Chain of Voltage-gated inwardly rectifying potassium channel KCNH2 (Q12809 whole entry): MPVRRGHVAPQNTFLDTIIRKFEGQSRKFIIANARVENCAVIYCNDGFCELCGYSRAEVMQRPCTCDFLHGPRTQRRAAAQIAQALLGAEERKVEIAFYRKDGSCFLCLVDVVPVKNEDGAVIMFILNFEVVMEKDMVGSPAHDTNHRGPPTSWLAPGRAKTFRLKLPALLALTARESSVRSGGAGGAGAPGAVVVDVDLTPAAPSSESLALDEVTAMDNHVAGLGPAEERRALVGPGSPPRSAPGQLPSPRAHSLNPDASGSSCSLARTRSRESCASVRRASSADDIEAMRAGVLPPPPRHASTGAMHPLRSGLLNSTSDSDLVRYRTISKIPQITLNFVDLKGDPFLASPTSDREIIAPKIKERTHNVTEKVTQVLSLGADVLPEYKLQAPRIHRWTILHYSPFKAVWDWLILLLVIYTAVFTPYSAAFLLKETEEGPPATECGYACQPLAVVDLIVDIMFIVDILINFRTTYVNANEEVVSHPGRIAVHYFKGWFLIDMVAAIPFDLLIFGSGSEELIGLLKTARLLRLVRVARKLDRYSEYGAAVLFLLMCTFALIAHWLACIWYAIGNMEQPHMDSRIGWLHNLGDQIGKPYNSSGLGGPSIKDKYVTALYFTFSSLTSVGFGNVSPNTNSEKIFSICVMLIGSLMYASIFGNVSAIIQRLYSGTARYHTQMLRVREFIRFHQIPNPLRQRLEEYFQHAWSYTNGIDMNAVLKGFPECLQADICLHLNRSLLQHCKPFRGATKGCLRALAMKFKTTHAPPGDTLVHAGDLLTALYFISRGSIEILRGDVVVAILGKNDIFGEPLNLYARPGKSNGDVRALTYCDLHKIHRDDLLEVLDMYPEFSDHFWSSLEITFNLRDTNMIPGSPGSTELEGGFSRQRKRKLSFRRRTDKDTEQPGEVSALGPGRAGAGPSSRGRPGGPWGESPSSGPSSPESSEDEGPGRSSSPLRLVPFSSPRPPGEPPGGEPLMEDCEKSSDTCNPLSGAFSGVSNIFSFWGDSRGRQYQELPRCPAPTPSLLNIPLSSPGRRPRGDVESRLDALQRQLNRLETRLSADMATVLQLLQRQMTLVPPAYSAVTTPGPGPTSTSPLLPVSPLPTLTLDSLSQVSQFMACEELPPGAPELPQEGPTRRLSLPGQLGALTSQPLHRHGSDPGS

O=C(OCn1ncc(Br)c(Br)c1=O)c1c(F)cccc1F
IC50 [1]: 0.888 µM (active)
IC50 [2]: 88.8 µM (not active)
EC50 [3]: 1.82 µM (active)
IC50 [4]: 7.96 µM (active)
EC50 [5]: 1.78 µM (active)

O=C(O)C1CCCCC1C(=O)NCCc1c[nH]c2ccccc12 (stereo unspecified)
EC50 [6]: 34.8 µM (not active)
IC50 (Protein skinhead-1): > 100 µM (inactive)

Cc1ccc(C)c(NC(=S)NC(=O)c2cncc(Br)c2)c1
EC50 [7]: 4.77 µM (active)
IC50 [8]: > 66 µM (inactive)
IC50 [9]: > 66 µM (inactive)

OCCN1CCN(CCCN2c3ccccc3Sc3ccc(C(F)(F)F)cc32)CC1 [FLUPHENAZINE]
IC50 (NADPH oxidase 1): > 17 µM (not active)

Cc1ccc(-c2cc(C(=O)NCc3ccco3)c3ccccc3n2)o1
IC50 (Estrogen receptor beta [10]): > 50 µM (not active)
IC50 (Estrogen receptor): 6.84 µM (active)
IC50 [11]: 4.39 µM (active)
EC50 [12]: > 112 µM (not active)
EC50 [13]: 36.8 µM (active)
IC50 (Estrogen receptor beta [14]): 3.37 µM (active)

C(=Nc1ncnc2sccc12)NOCc1ccccc1
EC50 [15]: > 120 µM (not active)

Cc1ccc(OCC(=O)c2c(N)n(C)c(=O)n(C)c2=O)c([N+](=O)[O-])n1
IC50 (Albumin): > 94.1 µM (inactive)
AC50 (Caspase-6): 18.9 µM (active)
IC50 (Bcl-2-like protein 1): 21.3 µM (not active)
IC50 [16]: 8.63 µM (active)

C/C(=N\OC(=O)c1ccccc1)c1cc(-c2ccc(Cl)cc2)no1
AC50 (Cytochrome P450 2D6): inconclusive
EC50 [17]: 1.04 µM (active)
EC50 [18]: < 0.1 µM (active)
EC50 [19]: 1.28 µM (active)
EC50 [20]: 4.74 µM (active)
AC50 (Cytochrome P450 2C19): 22.4 µM (inconclusive)
EC50 (H4): 68.1 µM (active)

CCN(CC)C(=S)SCC(=O)NC12CC3CC(CC(C3)C1)C2
EC50 (Ion channel NompC): > 29.9 µM (not active)
EC50 (Mucolipin-3): 14.7 µM (not active)
